Patent publication USRE48461E1, “Modulation of androgen receptor expression” (Ionis Pharmaceuticals, Inc., priority 2012, dated 2021)
Oligonucleotides are written 5' to 3', each unit as a sugar letter and its base; * is a phosphorothioate linkage, no mark a phosphodiester; rarer units and linkages stand in square brackets, end groups in braces. Plain capitals give the bases only. k = constrained ethyl (cEt); [5mC] = 5-methylcytosine; d = 2'-deoxy (DNA)

How the values were obtained:
AR mRNA [1] = experiment: Dose-dependent antisense inhibition of human AR in HuVEC cells (electroporation, qRT-PCR RTS3559, IC50); assay type: cell-based; details: HuVEC, electroporation, approximately 16 hours
Method in brief: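 HuVEC cells dosed with antisense oligonucleotides by electroporation and treated approximately 16 hours. AR mRNA quantified by real-time qPCR with primer probe set RTS3559 and normalised to total RNA by RIBOGREEN; IC50 from dose-response.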

AR mRNA [2] = experiment: Antisense inhibition of human AR in HuVEC cells, single concentration (electroporation, qRT-PCR RTS3559); assay type: cell-based
Method in brief: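 AR mRNA levels were measured with human primer-probe set RTS3559 and adjusted for total RNA (RIBOGREEN). Cells were HuVEC, with each antisense oligonucleotide delivered by electroporation at one concentration.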

[3] = Table 24, 1,000 nM oligonucleotide, electroporation, approximately 24 hours, relative to untreated control
[4] = Table 20, 500 nM oligonucleotide, electroporation, approximately 24 hours, relative to untreated control

Row | Substance | percent inhibition of AR, 46.9 nM (AR mRNA [1]; Table 35) [%] | percent inhibition of AR, 187.5 nM (AR mRNA [1]; Table 35) [%] | percent inhibition of AR, 750.0 nM (AR mRNA [1]; Table 35) [%] | percent inhibition of AR, 3000.0 nM (AR mRNA [1]; Table 35) [%] | IC50 (AR mRNA [1]; Table 35) [nM] | % inhibition (AR mRNA [2]; [3]) [%] | percent inhibition of AR, 46.9 nM (AR mRNA [1]; Table 32) [%] | percent inhibition of AR, 187.5 nM (AR mRNA [1]; Table 32) [%] | percent inhibition of AR, 750.0 nM (AR mRNA [1]; Table 32) [%] | percent inhibition of AR, 3000.0 nM (AR mRNA [1]; Table 32) [%] | IC50 (AR mRNA [1]; Table 32) [nM] | % inhibition (AR mRNA [2]; [4]) [%] | further results
1 | 583642 (antisense kA*kG*kT*dG*dT*d[5mC]*d[5mC]*dA*d[5mC]*dT*dG*dA*dA*kG*kT*kA) [compound 583642] |  |  |  |  |  |  |  |  |  |  |  |  | percent inhibition of AR, 46.9 nM (AR mRNA [1]; Table 30): 18%; percent inhibition of AR, 187.5 nM (AR mRNA [1]; Table 30): 35%; percent inhibition of AR, 750.0 nM (AR mRNA [1]; Table 30): 67%; percent inhibition of AR, 3000.0 nM (AR mRNA [1]; Table 30): 74%; IC50 (AR mRNA [1]; Table 30): 460 nM; % inhibition (AR mRNA [2]; 500 nM ASO, ~24 h, Table 17): 42%
2 | 584152 (kG*kA*kG*dT*dT*dG*dT*dG*dA*dT*dT*dT*d[5mC]*kA*kG*kG; antisense) [compound 584152] | 28 | 59 | 87 | 95 | 110 | 88 |  |  |  |  |  |  | 
3 | 583856 (kA*kA*k[5mC]*d[5mC]*dT*dT*dT*dG*d[5mC]*dA*dT*dT*d[5mC]*kG*kG*k[5mC]; antisense) [compound 583856] |  |  |  |  |  |  | 31 | 55 | 74 | 89 | 140 | 45 | 
4 | 584168 (k[5mC]*kT*kG*dA*dT*dT*dA*dG*d[5mC]*dT*dA*dT*dG*kA*k[5mC]*k[5mC]; antisense) [compound 584168] |  |  |  |  |  | 70 |  |  |  |  |  |  | percent inhibition of AR, 46.9 nM (AR mRNA [1]; Table 36): 5%; percent inhibition of AR, 187.5 nM (AR mRNA [1]; Table 36): 32%; percent inhibition of AR, 750.0 nM (AR mRNA [1]; Table 36): 70%; percent inhibition of AR, 3000.0 nM (AR mRNA [1]; Table 36): 91%; IC50 (AR mRNA [1]; Table 36): 320 nM
5 | 583881 (k[5mC]*k[5mC]*kT*dT*dT*dG*dG*dT*dG*dT*dA*dA*d[5mC]*k[5mC]*kT*k[5mC]; antisense) [compound 583881] |  |  |  |  |  |  | 28 | 50 | 85 | 91 | 150 | 47 | 
6 | 583836 (k[5mC]*k[5mC]*kG*dA*dA*dG*d[5mC]*dT*dG*dT*dT*d[5mC]*d[5mC]*k[5mC]*k[5mC]*kT; antisense) [compound 583836] |  |  |  |  |  |  | 11 | 27 | 67 | 86 | 390 | 37 | 
7 | 583920 (kT*kA*kG*dT*dA*dG*dT*d[5mC]*dG*d[5mC]*dG*dA*d[5mC]*kT*k[5mC]*kT; antisense) [compound 583920] |  |  |  |  |  |  |  |  |  |  |  |  | percent inhibition of AR, 46.9 nM (AR mRNA [1]; Table 33): 11%; percent inhibition of AR, 187.5 nM (AR mRNA [1]; Table 33): 16%; percent inhibition of AR, 750.0 nM (AR mRNA [1]; Table 33): 50%; percent inhibition of AR, 3000.0 nM (AR mRNA [1]; Table 33): 72%; IC50 (AR mRNA [1]; Table 33): 760 nM; % inhibition (AR mRNA [2]; Table 21, 500 nM oligonucleotide, electroporation, approximately 24 hours, relative to untreated control): 42%
8 | 584145 (kA*kT*kG*dG*dG*dA*dG*dT*dA*dA*d[5mC]*dT*dT*kT*kT*kG; antisense) [compound 584145] | 6 | 32 | 63 | 88 | 360 | 76 |  |  |  |  |  |  | 
9 | 584167 (kG*kA*kG*dT*dG*dT*dT*dA*dA*dT*dG*dA*dA*kG*kA*k[5mC]; antisense) [compound 584167] | 13 | 45 | 76 | 93 | 210 | 78 |  |  |  |  |  |  | 
